Test results as given in ChEMBL document CHEMBL1201862, “PubChem BioAssay data set” (2004).
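Cells were grown in 96-well plates and exposed to each compound for 48 hours at five concentrations; endpoints were interpolated linearly between bracketing concentrations, or set to the highest concentration if not reached. GI50: concentration for 50% inhibition of growth.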 Calls of active or inactive are those of the source. Rule as the data show it: active = GI50 up to about 1.1 µM and inactive = higher.

Experiments:
Assay in all cases: inhibition of tumour cell growth, NCI panel, 48 h
[1] = test system: CCRF-CEM
[2] = test system: SNB-19
[3] = test system: DU-145
[4] = test system: OVCAR-5
[5] = test system: SNB-75
[6] = test system: HCT-116
[7] = test system: MOLT-4
[8] = test system: LOX IMVI
[9] = test system: MCF7
[10] = test system: 786-0
[11] = test system: HOP-92
[12] = test system: ACHN
[13] = test system: SF-295
[14] = test system: Hs-578T
[15] = test system: OVCAR-3
[16] = test system: PC-3
[17] = test system: HCC 2998
[18] = test system: K562
[19] = test system: SF-268
[20] = test system: M14

`COC(=O)CN1SC2(SC13C(C)(C)C(=O)C3(C)C)C(C)(C)C(=O)C2(C)C` was tested, and the GI50 [1] was 11.1 µM (inactive), the GI50 [2] was > 100 µM (inactive) and the GI50 [3] was 31.5 µM (inactive). The GI50 [4] was > 100 µM (inactive), the GI50 [5] was 37.8 µM (inactive) and the GI50 [6] was 46 µM (inactive). The GI50 [7] was 37 µM (inactive), the GI50 [8] was 46.9 µM (inactive) and the GI50 [9] was 54.2 µM (inactive). The GI50 [10] was > 100 µM (inactive), the GI50 [11] was 0.0244 µM (active) and the GI50 [12] was > 100 µM (inactive). The GI50 [13] was 48.3 µM (inactive), the GI50 [14] was > 100 µM (inactive) and the GI50 [15] was 41.6 µM (inactive). The GI50 [16] was 29.2 µM (inactive), the GI50 [17] was 80.2 µM (inactive) and the GI50 [18] was 52.6 µM (inactive). The GI50 [19] was 36.1 µM (inactive) and the GI50 [20] was > 100 µM (inactive).
With `CCCC(=O)NC(C(=O)OCC)(N1CCOCC1)C(F)(F)F` (stereo not given) the GI50 [1] was > 100 µM (inactive), the GI50 [2] was > 100 µM (inactive) and the GI50 [3] was > 100 µM (inactive). For the same compound, the GI50 [4] was > 100 µM (inactive), the GI50 [5] was > 100 µM (inactive) and the GI50 [6] was > 100 µM (inactive). For the same compound, the GI50 [7] was > 100 µM (inactive), the GI50 [8] was > 100 µM (inactive) and the GI50 [9] was > 100 µM (inactive). The GI50 [10] was > 100 µM (inactive), the GI50 [11] was > 100 µM (inactive) and the GI50 [12] was > 100 µM (inactive). For the same compound, the GI50 [13] was > 100 µM (inactive), the GI50 [14] was > 100 µM (inactive) and the GI50 [15] was > 100 µM (inactive). For the same compound, the GI50 [16] was > 100 µM (inactive), the GI50 [17] was > 100 µM (inactive) and the GI50 [18] was > 100 µM (inactive). The GI50 [19] was > 100 µM (inactive) and the GI50 [20] was > 100 µM (inactive).
With `CC[P+](c1ccccc1)(N(C)C)N(C)C` the GI50 [1] was > 100 µM (inactive), the GI50 [2] was > 100 µM (inactive) and the GI50 [3] was > 100 µM (inactive). The GI50 [4] was > 100 µM (inactive), the GI50 [5] was > 100 µM (inactive) and the GI50 [6] was > 100 µM (inactive). The GI50 [7] was > 100 µM (inactive), the GI50 [8] was > 100 µM (inactive) and the GI50 [9] was > 100 µM (inactive). The GI50 [10] was > 100 µM (inactive), the GI50 [11] was 38.9 µM (inactive) and the GI50 [12] was > 100 µM (inactive). The GI50 [13] was > 100 µM (inactive), the GI50 [14] was > 100 µM (inactive) and the GI50 [15] was > 100 µM (inactive). The GI50 [16] was 60.5 µM (inactive), the GI50 [17] was > 100 µM (inactive) and the GI50 [18] was > 100 µM (inactive). The GI50 [19] was 95.1 µM (inactive) and the GI50 [20] was > 100 µM (inactive).
For `C=C(C=O)c1c2c(nc3ccccc13)C(=O)c1ccccc1C2=O`, the GI50 [1] was 0.191 µM (active), the GI50 [2] was 1.64 µM (inactive) and the GI50 [3] was 0.286 µM (active). The GI50 [4] was 1.9 µM (inactive), the GI50 [5] was 1.14 µM (inactive) and the GI50 [6] was 0.619 µM (active). The GI50 [7] was 0.282 µM (active), the GI50 [8] was 0.316 µM (active) and the GI50 [9] was 0.429 µM (active). The GI50 [10] was 0.826 µM (active), the GI50 [11] was 1.67 µM (inactive) and the GI50 [12] was 0.434 µM (active). The GI50 [13] was 1.29 µM (inactive), the GI50 [14] was 0.617 µM (active) and the GI50 [15] was 0.398 µM (active). For the same compound, the GI50 [16] was 1.29 µM (inactive), the GI50 [17] was 2.75 µM (inactive) and the GI50 [18] was 0.391 µM (active). For the same compound, the GI50 [19] was 0.668 µM (active) and the GI50 [20] was 0.562 µM (active).
In the case of `O=C(N/N=C/c1c(-c2ccccc2)no[n+]1[O-])N1CCOCC1`, the GI50 [1] is reported as > 100 µM (inactive), the GI50 [2] is reported as > 100 µM (inactive) and the GI50 [3] is reported as > 100 µM (inactive). The GI50 [4] was > 100 µM (inactive), the GI50 [5] was > 100 µM (inactive) and the GI50 [6] was > 100 µM (inactive). For the same compound, the GI50 [7] was 26.3 µM (inactive), the GI50 [8] was > 100 µM (inactive) and the GI50 [9] was > 100 µM (inactive). The GI50 [10] was > 100 µM (inactive), the GI50 [11] was > 100 µM (inactive) and the GI50 [12] was > 100 µM (inactive). For the same compound, the GI50 [13] was > 100 µM (inactive), the GI50 [14] was > 100 µM (inactive) and the GI50 [15] was > 100 µM (inactive). The GI50 [16] was > 100 µM (inactive), the GI50 [17] was > 100 µM (inactive) and the GI50 [18] was > 100 µM (inactive). For the same compound, the GI50 [19] was > 100 µM (inactive) and the GI50 [20] was > 100 µM (inactive).
